The text below walks through data of patent US20250206704A1, “ENGINEERED IONOPHORES FOR TRANSPORT OF METAL IONS” (The Brigham and Women's Hospital, Inc., priority 2022, published 2025).

≈ marks a conversion by molar mass, not a printed value. Like-named read-outs stand apart in the source and are kept apart here.

In data set [1] the test system is S. epidermidis, S. caprae, B. subtilis, B. cereus. The experiment in a line: Average MIC over the four gram-positive strains. The format is cell-based. Here is the method:
(§1) Next, Applicants evaluated the antibacterial activities of the ionophores. First, Applicants determined their minimum inhibitory concentration (MIC) in the gram-positive bacterium that causes hospital-acquired infections, Staphylococcus epidermidis.
(§2) The MIC assay was performed according to the Clinical and Laboratory Standards Institute protocols.^3 The antibacterial activities of the compounds were measured using the broth microdilution method. Serial dilutions of compounds were prepared in cation-adjusted Müller Hinton Broth. Each dilution (100 μL) was dispensed to each well of a round-bottom plate to obtain final concentrations ranging from 0.07815-40 μM. Bacteria were grown at 37° C. overnight on cation-adjusted Müller Hinton Broth. The bacterial solution was prepared in 0.9% saline and adjusted to obtain an OD600=0.1 using a SpectraMax M5 (Molecular Devices). The resultant suspension was diluted 1:20 with cation-adjusted Müller Hinton Broth. The resulting mixture (10 μL) was added to each well of the plates (approximately 5×10^4 CFU/well), mixed, and incubated at 37° C. for 24 h. The MIC value was determined as the minimum concentration that inhibited the growth of bacteria.

The subject of data set [2] is U2OS cells. In words: ICP-MS analysis of intracellular Zn(II) in U2OS cells. The format is cell-based. The following applies: 10 μM Zn(II) and 5 μM compound, 1 hour. The method, then:
Next, Applicants used inductively coupled plasma mass spectrometry (ICP-MS) to validate the imaging assay and the ionophores activity (FIG. 1F). While the intracellular Zn^II levels where similar between DMSO and chelator 1, Zn^II concentrations inside cells were 3-fold higher when Applicants co-treated ionophores 8 and 9.
U2OS cells (˜200,000) were plated in a 6-well dish. After a day, the medium was aspirated, and Zn(II) (10 μM) and compounds (5 μM) containing media (2 mL) were added to each appropriate well. Cells were harvested by first washing each well with PBS containing EDTA (100 μM, 2×2.0 mL) and subsequently adding Milli-Q water ([…] to each well and incubating for 2-4 min. A portion of the resulting cell lysate (900 μL) was collected and transferred to an Eppendorf Safe-Lock tube, snap-frozen in N2(l), and then thawed at room temperature (RT) for a total of three freeze-thaw cycles. The insoluble lysate was pelleted (10 min at 10,000 g), and the soluble protein concentration of each sample was determined using the Pierce 660 nm Protein Assay in a 96-well plate (200 μL of reagent, 14 μL of sample, bovine serum albumin standard curve). Samples were then frozen and lyophilized overnight, and the resulting white, flaky solid was taken up in concentrated nitric acid (200 μL, ultrapure for trace metal analysis, BDH Aristar) and heated at 70° C. for 1 h. A portion of each sample (142 μL) was then diluted with water (2 mL) and a terbium internal standard (Agilent 5190-8590; stock at 10,000 parts per billion [ppb] in 10% nitric acid diluted to 100 ppb in Milli-Q water for addition to samples, 2 ppb final concentration), after which the metal content of the samples was assessed by ICP-MS. […] Therefore, 1 ppb was taken to be equal to 1 μg/L, and the molarity of a particular solution was considered equal to the measured concentration of a particular ion in ppb, divided by the molecular weight of the ion, multiplied by 10-6.

Data set [3] concerns Bacillus cereus. In words: MIC, broth microdilution. It counts as cell-based. The following applies: Table 4, read-out: Strain MIC B. cereus. Here is the method: as §1
(§3) Staphylococcus epidermidis ATCC® 12228™, Staphylococcus caprae ATCC® 51549™, Bacillus subtilis ATCC® 6051™, and Bacillus cereus ATCC® 14579™ were grown in cation-adjusted Mueller-Hinton broth (CA-MHB) (catalog no. 90922, Sigma) as per the Clinical and Laboratory Standards Institute guidelines.2 Bacteria were routinely grown at 37° C. under aerobic conditions.
as §2
(In general: Broth dilution looks for growth in wells or tubes with falling amounts of substance.)

In data set [4] the test system is Staphylococcus caprae. The experiment in a line: MIC, broth microdilution. It counts as cell-based. The following applies: Table 4, read-out: Strain MIC S. caprae. Here is the method: as §1, §3, §2
Data set [5] relates to Bacillus subtilis. In words: MIC, broth microdilution. The following applies: Table 4, read-out: Strain MIC B. subtilis. The format is cell-based. The method, then:
as §1, §3, §2

For data set [6], the system named is U2OS cells. In words: U2OS cell viability assay (CellTiter-Glo). It counts as cell-based. The following applies: Homo sapiens, cell viability, 48 h, 5 μM Zn^II, read-out: U2OS EC50 + 5 μM Zn^II. The method, then:
(§4) Applicants reasoned that limiting extracellular zinc with EDTA would abolish ionophore activity by depleting the available metal ions for membrane transport. […] [24]
U2OS cells were seeded in black 384-well plates at a density of 3,000 cells per well in 25 μL of medium per well. After seeding, the cells were left to adhere overnight. The compounds to be tested were added to the designated culture plates in 25 μL of medium in triplicate with a normalized DMSO concentration (0.05%) in all treatments, and the plates were placed at 37° C. in a humidified atmosphere containing 5% CO2. After 48 h, 40 μl of CellTiter-Glo (Promega) was added to each well and incubated for 30 min, after which the plate luminescence was analyzed in a PerkinElmer EnVision Manager 1.13 (PerkinElmer). The average growth of treated cells was calculated by correcting the values for background luminescence and was subsequently normalized to the average of the two lowest treatments of the compound in question. Data were plotted and fitted to a dose-response curve using GraphPad Prism 9.

Data set [7] concerns Staphylococcus epidermidis. The experiment in a line: MIC, broth microdilution. The format is cell-based.
Text: as §1, §4, §3, §2

In data set [8] the test system is bacteria vs U2OS cells. In words: Antibacterial selectivity (average molar MIC in bacteria vs EC50 in U2OS cells). The format is cell-based.
Data set [9] is described as follows: UV/Vis titration, stability constant (logK) with ZnCl2. The format is physicochemical. Particulars: UV/Vis titration with ZnCl2, TitrationFit. The text has this:
Applicants validated the design principles by confirming that the silyl group lowered the binding affinity and shielded the hydrophilic pocket. […] [17] […] Applicants confirmed that all compounds bound Zn^II with 1:1 stoichiometry (FIG. 12). […] Applicants superimposed the X-ray structure of the TIPS-containing Zn^II:9 complex with the literature precedented Zn^II:1 and observed significant structural distortion in the Zn^II:9 complex, which could explain the lower logK.
A solution of ligand was prepared in acetonitrile. The starting concentration was chosen to be around 0.10 mM, based on the absorption maximum of the compound. This solution (2.5 mL) was pipetted into a quartz cuvette with a 1-cm optical path length. The titration was performed by the stepwise addition of a 10-mM ZnC12 solution in acetonitrile. The absorption spectra were measured over the range of 250-800 nm. The calculation of the stability constants was accomplished using TitrationFit.1

[10] abbreviates: read-out: Average MIC (molar, in brackets).
Setting [11] is: Table 4, read-out: Strain MIC S. epidermidis.
Where [12] appears, read: ratio of average molar MIC and U2OS EC50, Table 4.

As to `CC(C)[Si](c1cccc(CN(Cc2ccccn2)Cc2ccccn2)c1O)(C(C)C)C(C)C` [Compound 9, 2-((bis(pyridin-2-ylmethyl)amino)methyl)-6-(triisopropylsilyl)phenol], the MIC in [1] (read-out: Average MIC) was determined as 0.98 µg/mL; in [1] (setting [10]), 2.1 µM; in [1] (read-out: average MIC), 1 µg/mL; in data set [3], 1.2 µg/mL (≈ 2.6 µM); in [4] it was 0.3 µg/mL (≈ 0.65 µM); in data set [5], 1.2 µg/mL (≈ 2.6 µM). Moreover, the figures for the minimal inhibitory concentration (MIC) in data set [7] (setting [11]) and in data set [7] (read-out: MIC) were 1.2 µg/mL (≈ 2.6 µM) and approximately 1.2 µg/mL (≈ 2.6 µM), respectively. Moreover, the “intracellular Zn^II level relative to DMSO” value in data set [2] is listed as 3 fold. Further, the CC50 in data set [6] stood at 14.2 µM. For the same compound, in [7], the “change of MIC with additional Zn^II in the media” value was “unaltered”. Also, the “change of MIC in presence of EDTA” value in [7] (50 μM EDTA) is on record as “dramatically increased”. Moreover, the antibacterial selectivity in data set [8] worked out at 6.8 times; in data set [8] (setting [12]), 6.8. Also, in data set [9], the “logK (Zn^II binding)” value was 6.9.

As to `CC(C)(C)[Si](C)(C)c1cccc(CN(Cc2ccccn2)Cc2ccccn2)c1O` [Compound 8, 2-((bis(pyridin-2-ylmethyl)amino)methyl)-6-(tert-butyldimethylsilyl)phenol], the MIC in data set [1] (read-out: Average MIC) is 3.4 µg/mL; in data set [1] (setting [10]) it was 8.1 µM; in data set [3], 4.2 µg/mL (≈ 10 µM); in data set [4] it was 1.1 µg/mL (≈ 2.62 µM); in data set [5] it was 4.2 µg/mL (≈ 10 µM); in [7] (setting [11]) it was 4.2 µg/mL (≈ 10 µM). In [7] (read-out: MIC), the MIC was approximately 4.2 µg/mL (≈ 10 µM). For the same compound, in [2], the “intracellular Zn^II level relative to DMSO” value is 3 fold. Besides, in data set [6], the CC50 was 76.5 µM. Moreover, the values for the antibacterial selectivity in [8] and in [8] (setting [12]) were 9.4 times and 9.4, respectively. Moreover, in data set [9], the “logK (Zn^II binding)” value came out at 7.5.

Broadly, the MIC is the smallest concentration in the dilution series that meets the test's criterion for growth inhibition.
